Test results published in ChEMBL document CHEMBL1201862, “PubChem BioAssay data set” (2004).
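Results reflect a 48-hour exposure of cells in 96-well plates to compound at five concentrations. Here, GI50 denotes the concentration required for 50% inhibition of growth.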 The source made the active and inactive calls. Cut-off read from the data, not from the text of the source: active = GI50 up to about 1.1 µM and inactive = higher.

Key:
Experiment in all cases: growth of human tumour cells (NCI), 48 h
RXF 631 = system: RXF 631
KM-20L2 = system: KM-20L2
XF498 = system: XF498
SNB-78 = system: SNB-78
HOP-18 = system: HOP-18
DLD-1 = system: DLD-1
LXFL 529 = system: LXFL 529
DMS-273 = system: DMS-273
M19-MEL = system: M19-MEL

Measured: GI50

O=[N+]([O-])c1cccc(C2=NN(c3ccccc3)C3c4ccccc4OCC23)c1 (stereo not drawn)
inactive: RXF 631 > 100 µM | KM-20L2 > 100 µM | XF498 > 100 µM | SNB-78 > 100 µM | HOP-18 > 100 µM | DLD-1 > 100 µM | LXFL 529 > 100 µM | DMS-273 > 100 µM | M19-MEL > 100 µM

CC(=O)OCC1OC(OC2CC3C(C)(C)C(OC(C)=O)CC[C@]3(C)C3CCC45CC4(CC[C@H]5C(C)CC(O)C4OC4(C)C)[C@]23C)C(O)C(O)C1O (stereo partly drawn)
inactive: RXF 631 2.32 µM | KM-20L2 1.85 µM | XF498 1.53 µM | SNB-78 5.71 µM | HOP-18 2.2 µM | DLD-1 1.79 µM | LXFL 529 3.11 µM | DMS-273 1.99 µM | M19-MEL 1.93 µM
